From patent US20200291018A1, “TAM KINASE INHIBITORS” (SYROS PHARMACEUTICALS, INC., priority 2017, published 2020)

Tests used:
AXL = target: T1, AXL (Homo sapiens, UniProt P30530); assay: TR-FRET kinase activity assay, AXL; assay type: biochemical; conditions: ATP at Km, 60 minutes
T1 sequence (P30530 26-894): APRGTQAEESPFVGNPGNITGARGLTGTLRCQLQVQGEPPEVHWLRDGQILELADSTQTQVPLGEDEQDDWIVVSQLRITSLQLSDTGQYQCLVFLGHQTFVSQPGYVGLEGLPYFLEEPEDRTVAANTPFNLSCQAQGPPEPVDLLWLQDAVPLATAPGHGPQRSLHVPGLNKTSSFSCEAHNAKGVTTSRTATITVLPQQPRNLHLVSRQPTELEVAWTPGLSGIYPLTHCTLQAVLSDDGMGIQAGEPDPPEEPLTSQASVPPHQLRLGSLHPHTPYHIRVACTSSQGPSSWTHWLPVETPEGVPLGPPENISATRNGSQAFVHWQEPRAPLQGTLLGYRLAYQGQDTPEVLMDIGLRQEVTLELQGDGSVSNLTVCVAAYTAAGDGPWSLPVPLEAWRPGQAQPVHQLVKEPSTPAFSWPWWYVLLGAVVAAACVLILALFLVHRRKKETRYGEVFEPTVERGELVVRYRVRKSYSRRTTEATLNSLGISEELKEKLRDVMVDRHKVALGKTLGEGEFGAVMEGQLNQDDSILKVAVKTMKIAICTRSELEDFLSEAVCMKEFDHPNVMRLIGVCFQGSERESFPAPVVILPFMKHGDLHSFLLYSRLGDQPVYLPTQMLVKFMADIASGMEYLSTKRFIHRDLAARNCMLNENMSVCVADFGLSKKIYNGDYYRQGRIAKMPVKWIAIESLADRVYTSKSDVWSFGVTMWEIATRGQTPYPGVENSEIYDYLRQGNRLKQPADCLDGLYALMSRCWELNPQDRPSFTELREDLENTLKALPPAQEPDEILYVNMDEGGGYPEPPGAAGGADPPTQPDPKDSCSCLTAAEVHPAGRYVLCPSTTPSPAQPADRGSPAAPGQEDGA
How it was run: (§1)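 Steps: compound, enzyme and labeled peptide combined at RT (50 mM HEPES pH 7.5, 10 mM MgCl2, 1 mM DTT); ATP added at Km; 60 min reaction; EDTA quench; Eu-antibody development 30 min in darkness; TR-FRET measured and IC50 fitted.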

MERTK = target: T2, MERTK (Homo sapiens, UniProt Q12866); assay: TR-FRET kinase activity assay, MERTK; assay type: biochemical; conditions: for IC50: TR-FRET activity assay, ATP at Km, 60 minutes, read-out: Mer IC50; for Mer/Flt3 ratio (FLT3 IC50/Mer IC50): ratio calculated as FLT3 IC50/Mer IC50
T2 sequence (Q12866 21-999): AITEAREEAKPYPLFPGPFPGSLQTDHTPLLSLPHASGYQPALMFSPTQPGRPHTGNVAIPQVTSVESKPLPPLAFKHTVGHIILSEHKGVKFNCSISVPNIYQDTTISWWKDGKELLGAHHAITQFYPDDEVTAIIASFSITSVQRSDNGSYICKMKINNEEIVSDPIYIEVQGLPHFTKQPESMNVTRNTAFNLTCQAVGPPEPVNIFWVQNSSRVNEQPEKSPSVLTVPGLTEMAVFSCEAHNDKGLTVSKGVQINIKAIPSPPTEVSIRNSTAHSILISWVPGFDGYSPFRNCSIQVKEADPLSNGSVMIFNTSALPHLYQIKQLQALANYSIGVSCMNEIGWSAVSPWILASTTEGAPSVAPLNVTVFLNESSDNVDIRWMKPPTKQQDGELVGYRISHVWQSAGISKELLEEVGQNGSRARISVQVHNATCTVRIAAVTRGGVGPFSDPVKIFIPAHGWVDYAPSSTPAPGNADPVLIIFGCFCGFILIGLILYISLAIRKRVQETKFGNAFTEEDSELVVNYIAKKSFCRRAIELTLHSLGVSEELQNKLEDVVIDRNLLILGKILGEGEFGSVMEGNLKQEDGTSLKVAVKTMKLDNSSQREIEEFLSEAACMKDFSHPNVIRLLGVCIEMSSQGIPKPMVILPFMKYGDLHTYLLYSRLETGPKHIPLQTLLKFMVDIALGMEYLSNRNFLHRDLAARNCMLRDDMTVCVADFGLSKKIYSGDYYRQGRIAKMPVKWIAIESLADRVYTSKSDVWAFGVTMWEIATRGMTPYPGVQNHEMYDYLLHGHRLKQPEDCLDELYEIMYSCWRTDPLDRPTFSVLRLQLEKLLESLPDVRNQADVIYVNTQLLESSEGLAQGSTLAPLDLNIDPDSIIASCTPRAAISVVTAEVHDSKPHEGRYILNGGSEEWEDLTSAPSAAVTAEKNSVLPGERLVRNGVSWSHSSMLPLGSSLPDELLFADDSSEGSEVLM
How it was run: as §1

| SMILES | IC50 (AXL) [nM] | IC50 (MERTK) [nM] | Mer/Flt3 ratio (FLT3 IC50/Mer IC50) (MERTK) |
| --- | --- | --- | --- |
| CCCC(C)Nc1ncc2c(O[C@@H]3C[C@H]4CC[C@@H](C3)O4)ncc([C@H]3CC[C@H](O)CC3)c2n1 (stereo partly drawn) [Compound 174] | 100 to 1000 | ≤ 100 | ++ (a ratio of between 10 and 100) |
| CCCC(C)Nc1ncc2c(O[C@H]3C[C@H]4CC[C@@H](C3)O4)ncc([C@H]3CC[C@H](O)CC3)c2n1 (stereo partly drawn) [Compound 175] | 100 to 1000 | ≤ 100 | ++ (a ratio of between 10 and 100) |
| CCCC(C)Nc1ncc2c(O[C@H]3C[C@@H](O)C3)ncc([C@H]3CC[C@H](O)CC3)c2n1 (stereo partly drawn) [Compound 176] | 100 to 1000 | ≤ 100 | +++ (a ratio of >100) |
| CCCC(C)Nc1ncc2c(=O)n(CCN3CCOCC3)cc([C@H]3CC[C@H](O)CC3)c2n1 (stereo partly drawn) [Compound 177] | 1000 to 10000 | ≤ 100 | +++ (a ratio of >100) |
| CC(C)C(C)Nc1ncc2c(OC3CCNCC3)ncc([C@H]3CC[C@H](O)CC3)c2n1 (stereo partly drawn) [Compound 178] | 100 to 1000 | ≤ 100 | +++ (a ratio of >100) |
| CCCC(C)Nc1ncc2c(N(C)C3CCNCC3)ncc([C@H]3CC[C@H](O)CC3)c2n1 (stereo partly drawn) [Compound 179] | 100 to 1000 | ≤ 100 | ++ (a ratio of between 10 and 100) |
| CCCC(C)Nc1ncc2c(N3CCC[C@H](N(C)C)C3)ncc([C@H]3CC[C@H](O)CC3)c2n1 (stereo partly drawn) [Compound 180] | 1000 to 10000 | ≤ 100 | +++ (a ratio of >100) |
| CCCC(C)Nc1ncc2c(N3CC(N(C)C)C3)ncc([C@H]3CC[C@H](O)CC3)c2n1 (stereo partly drawn) [Compound 181] | 1000 to 10000 | ≤ 100 | ++ (a ratio of between 10 and 100) |
| CCCC(C)Nc1ncc2c(OCCN3CCOCC3)ncc([C@H]3CC[C@H](O)CC3)c2n1 (stereo partly drawn) [Compound 182] | 1000 to 10000 | ≤ 100 | ++ (a ratio of between 10 and 100) |
| O[C@H]1CC[C@H](c2cnc(OC3CCNCC3)c3cnc(NC4CCCCC4)nc32)CC1 [Compound 183] | 100 to 1000 | ≤ 100 | ++ (a ratio of between 10 and 100) |
| CCCC(C)Nc1ncc2c(OC3CCOCC3)ncc([C@H]3CC[C@@H](N(C)C)CC3)c2n1 (stereo partly drawn) [Compound 184] | 1000 to 10000 | ≤ 100 | ++ (a ratio of between 10 and 100) |
| CCCC(C)Nc1ncc2c(OC3CCOCC3)ncc([C@H]3CC[C@H](N(C)C)CC3)c2n1 (stereo partly drawn) [Compound 185] | 100 to 1000 | ≤ 100 | ++ (a ratio of between 10 and 100) |
| CCCC(C)Nc1ncc2c(=O)n(C3CCN(C(C)C)CC3)cc([C@H]3CC[C@H](O)CC3)c2n1 (stereo partly drawn) [Compound 186] | 100 to 1000 | ≤ 100 | +++ (a ratio of >100) |
| CCCC(C)Nc1ncc2c(O[C@H]3C[C@H](O)C3)ncc([C@H]3CC[C@H](O)CC3)c2n1 (stereo partly drawn) [Compound 187] | 100 to 1000 | ≤ 100 | ++ (a ratio of between 10 and 100) |
| CCCC(C)Nc1ncc2c(N3CCC[C@@H](N(C)C)C3)ncc([C@H]3CC[C@H](O)CC3)c2n1 (stereo partly drawn) [Compound 188] | 1000 to 10000 | ≤ 100 | +++ (a ratio of >100) |
| C[C@H](Nc1ncc2c(OC3CCNCC3)ncc([C@H]3CC[C@H](O)CC3)c2n1)c1ccccc1 [Compound 189] | 1000 to 10000 | ≤ 100 | ++ (a ratio of between 10 and 100) |
| CCC[C@H](C)Nc1ncc2c(OC3CCN(C)CC3)ncc([C@H]3CC[C@H](O)CC3)c2n1 [Compound 190] | 100 to 1000 | ≤ 100 | +++ (a ratio of >100) |
| CCCC(C)Nc1ncc2c(OCCN(C)C)ncc([C@H]3CC[C@H](O)CC3)c2n1 (stereo partly drawn) [Compound 191] | 1000 to 10000 | ≤ 100 | +++ (a ratio of >100) |
| CCCC(C)Nc1ncc2c(=O)n(C3CCN(C(=O)CN(C)C)CC3)cc([C@H]3CC[C@H](O)CC3)c2n1 (stereo partly drawn) [Compound 192] | 1000 to 10000 | ≤ 100 | +++ (a ratio of >100) |
| CCCC(C)Nc1ncc2c(=O)n(CC3CCN(C)CC3)cc([C@H]3CC[C@H](O)CC3)c2n1 (stereo partly drawn) [Compound 193] | 100 to 1000 | ≤ 100 | +++ (a ratio of >100) |
| C[C@@H](CC(F)(F)F)Nc1ncc2c(O[C@H]3C[C@](C)(O)C3)ncc([C@H]3CC[C@H](O)CC3)c2n1 [Compound 430] | 100 to 1000 | ≤ 100 | +++ (a ratio of >100) |
| COC[C@H](C)Nc1ncc2c(O[C@H]3C[C@@H](O)C3(C)C)ncc([C@H]3CC[C@H](O)CC3)c2n1 [Compound 431] | 1000 to 10000 | ≤ 100 | +++ (a ratio of >100) |
| COCCN1[C@@H]2CC[C@H]1C[C@H](Oc1ncc([C@H]3CC[C@H](O)CC3)c3nc(N[C@@H](C)CC(F)(F)F)ncc13)C2 [Compound 432] | ≤ 100 | ≤ 100 | +++ (a ratio of >100) |
| CC(=O)N[C@H]1C[C@@H](Oc2ncc([C@H]3CC[C@H](O)CC3)c3nc(N[C@@H](C)CC(F)(F)F)ncc23)C1 [Compound 433] | ≤ 100 | ≤ 100 | +++ (a ratio of >100) |
| CO[C@H]1C[C@@H](Oc2ncc([C@H]3CC[C@H](O)CC3)c3nc(N[C@@H](C)CC(F)(F)F)ncc23)C1 [Compound 434] | 100 to 1000 | ≤ 100 | +++ (a ratio of >100) |
| COC(=O)N[C@H]1C[C@@H](Oc2ncc([C@H]3CC[C@H](O)CC3)c3nc(N[C@@H](C)CC(F)(F)F)ncc23)C1 [Compound 435] | ≤ 100 | ≤ 100 | +++ (a ratio of >100) |
